“And” between values parts separate entries of the source, which are not always exact repeats. Identical values can stand only once. Counter-ions that a name gives are not always drawn.
Each molecule was assayed against T1, human p38 kinase alpha (Homo sapiens, UniProt Q16539) (assay: In vitro p38 kinase inhibition analysis (PHAS-I 32P-ATP or EGFRP 33P-ATP format)). Details: Table 1; compounds of Examples 1-28; one of two in vitro assay methods; Phosphate Dihydrate; read-out: p38α Kinase Inhibition (IC50 in μM).
T1 construct: The coding region of the human p38α cDNA was obtained by PCR-amplification from RNA isolated from the human monocyte cell line THP.1; made in house; host or cells: E. coli DH10B
Type: biochemical
Description: The ability of compounds to inhibit human p38 kinase alpha was evaluated using one of two in vitro assay methods. In the first method, activated human p38 kinase alpha phosphorylates a biotinylated substrate, PHAS-I (phosphorylated heat and acid stable protein-insulin inducible), in the presence of gamma ^32P-ATP (^32P-ATP). PHAS-I was biotinylated before the assay, and provided a means of capturing the substrate which was phosphorylated during the assay. p38 Kinase was activated by MKK6. Compounds were tested in 10 fold serial dilutions over the range of 100 μM to 0.001 μM using 1% DMSO. Each concentration of inhibitor was tested in triplicate.
All reactions were carried out in 96 well polypropylene plates. Each reaction well contained 25 mM HEPES pH 7.5, 10 mM magnesium acetate, and 50 μM unlabeled ATP. […] Activated human p38 kinase alpha was used at 1 μg per 50 μl reaction volume, representing a final concentration of 0.3 μM. Gamma ^32P-ATP was used to follow the phosphorylation of PHAS-I. ^32P-ATP has a specific activity of 3000 Ci/mmol, and was used at 1.2 μCi per 50 μl reaction volume. The reaction proceeded either for one hr or overnight at 30° C.
Following incubation, 20 μl of reaction mixture was transferred to a high capacity streptavidin coated filter plate (SAM-streptavidin-matrix, Promega) prewetted with phosphate buffered saline. The transferred reaction mix was allowed to contact the streptavidin membrane of the Promega plate for 1-2 min. […] Filter plates were air dried and 20 μl of scintillant was added. The plates were sealed and counted.
A second assay format was alternatively employed. This assay is based on p38 kinase alpha being induced phosphorylation of EGFRP (epidermal growth factor receptor peptide, a 21 mer) in the presence of ^33P-ATP. Compounds were tested in 10 fold serial dilutions over the range of 100 μM to 0.001 μM in 10% DMSO. Each concentration of inhibitor was tested in triplicate. Compounds were evaluated in 50 μl reaction volumes in the presence of 25 mM HEPES pH 7.5, 10 mM magnesium acetate, 4% glycerol, 0.4% bovine serum albumin, 0.4 mM DTT, 50 μM unlabeled ATP, 25 μg EGFRP (200 μM), and 0.05 uCi gamma ^33P-ATP. Reactions were initiated by addition of 0.09 μg of activated, purified human GST-p38 kinase alpha. Activation was carried out using GST-MKK6 (5:1,p38:MKK6) for one hr at 30° C. in the presence of 50 μM ATP. Following incubation for 60 min at room temperature, the reaction was stopped by addition of 150 μl of AG 1×8 resin in 900 mM sodium formate buffer, pH 3.0 (1 volume resin to 2 volumes buffer). The mixture was mixed three times with pipetting. Afterward, the resin was allowed to settle. A total of 50 μl of clarified solution head volume was transferred from the reaction wells to Microlite-2 plates. 150 μl of Microscint 40 was then added to each well of the Microlite plate, and the plate was sealed, mixed, and counted.

T1 sequence (Q16539 whole entry): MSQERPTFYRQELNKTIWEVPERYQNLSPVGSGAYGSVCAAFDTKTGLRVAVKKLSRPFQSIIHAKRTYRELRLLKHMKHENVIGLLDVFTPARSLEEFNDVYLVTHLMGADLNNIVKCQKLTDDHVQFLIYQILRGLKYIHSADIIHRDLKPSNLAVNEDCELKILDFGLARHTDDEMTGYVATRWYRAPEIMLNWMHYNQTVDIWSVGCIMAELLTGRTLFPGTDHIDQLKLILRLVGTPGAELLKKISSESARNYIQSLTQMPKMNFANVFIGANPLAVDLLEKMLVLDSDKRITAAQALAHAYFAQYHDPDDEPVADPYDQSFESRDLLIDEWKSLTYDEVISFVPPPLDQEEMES

Row | SMILES | IC50 [µM]
1 | O=C(COP(=O)(O)O)N1CCC(c2[nH]nc(-c3ccc(Cl)cc3)c2-c2ccncn2)CC1 [Example 23, mono-sodium 2-{4-[3-(4-chlorophenyl)-4-pyrimidin-4-yl-1H-pyrazol-5-yl]piperidin-1-yl}-2-oxoethyl Dihydrogen Phosphate Dihydrate] | 0.0681
2 | O=C(COP(=O)(O)O)N1CCC(c2[nH]nc(-c3ccc(Cl)cc3)c2-c2ccncn2)CC1 [Example 24, di-sodium 2-{4-[3-(4-chlorophenyl)-4-pyrimidin-4-yl-1H-pyrazol-5-yl]piperidin-1-yl}-2-oxoethyl Dihydrogen Phosphate Dihydrate] | 0.0608

Same assay, conditions: Table 1; compounds of Examples 1-28; one of two in vitro assay methods; Trifluoroacetate Hydrate; read-out: p38α Kinase Inhibition (IC50 in μM)

Row | SMILES | IC50 [µM]
3 | CN(CCO)[C@H]1CC[C@H](c2[nH]nc(-c3ccc(Cl)cc3)c2-c2ccncn2)CC1 [Example 11, 2-[{4-[3-(4-chlorophenyl)-4-pyrimidin-4-yl-1 H-pyrazol-5-yl]cyclohexyl)(methyl)amino]ethanol Trifluoroacetate Hydrate] | 0.0271

Same assay, conditions: Table 1; compounds of Examples 1-28; one of two in vitro assay methods; Trifluoroacetate; read-out: p38α Kinase Inhibition (IC50 in μM)

Row | SMILES | IC50 [µM]
4 | OC[C@H]1CCCN1[C@H]1CC[C@H](c2[nH]nc(-c3ccc(Cl)cc3)c2-c2ccncn2)CC1 [Example 9, ((2R)-1-{4-[3-(4-chlorophenyl)-4-pyrimidin-4-yl-1H-pyrazol-5-yl]cyclohexyl)pyrrolidin-2-yl)methanol Trifluoroacetate] | 0.0285

Same assay, conditions: Table 1; compounds of Examples 1-28; one of two in vitro assay methods; read-out: p38α Kinase Inhibition (IC50 in μM)

Row | SMILES | IC50 [µM]
5 | CC(C)N[C@H]1CC[C@H](c2[nH]nc(-c3ccc(F)c(F)c3)c2-c2ccncn2)CC1 [Example 13, 4-[3-(3,4-difluorophenyl)-4-pyrimidin-4-yl-1H-pyrazol-5-yl]-N-isopropylcyclohexanamine] | 0.115
6 | O=C(CO)N1CCC(c2[nH]nc(-c3ccc(Cl)cc3F)c2-c2ccncn2)CC1 [Example 27, 2-{4-[3-(4-chloro-2-fluorophenyl)-4-pyrimidin-4-yl-1H-pyrazol-5-yl]piperidin-1-yl}-2-oxoethanol] | 0.209
7 | CC(C)(O)[C@H]1CC[C@H](c2[nH]nc(-c3ccc(Cl)cc3)c2-c2ccncn2)CC1 [Example 16, 2-{4-[3-(4-chlorophenyl)-4-pyrimidin-4-yl-1H-pyrazol-5-yl]cyclohexyl)propan-2-ol] | 0.0926
8 | Fc1ccc(CN2CCC(c3[nH]nc(-c4ccc(Cl)cc4)c3-c3ccncn3)CC2)cc1 [Example 19, 4-{3-(4-chlorophenyl)-5-[1-(4-fluorobenzyl)piperidin-4-yl]-1H-pyrazol-4-yl}pyrimidine] | 0.102

Same assay, conditions: Table 2; additional pyrazole compounds, Examples 56-169; read-out: p38α Kinase Inhibition (IC50 in μM)

Row | SMILES | IC50
9 | CN(C)CCNc1nccc(-c2c(-c3ccc(F)c(C(F)(F)F)c3)n[nH]c2C2CCN(C)CC2)n1 [Example 166] | 1.1 µM
10 | CC(=O)OCC(=O)N1CCC(c2[nH]nc(-c3ccc(Cl)c(Cl)c3)c2-c2ccncn2)CC1 [Example 66] | 0.216 µM
11 | O=C(CO)N1CCC(c2[nH]nc(-c3cc(F)cc(F)c3)c2-c2ccncn2)CC1 [Example 76] | 6.2 µM
12 | C[C@H](O)C(=O)N1CCC(c2[nH]nc(-c3cccc(Cl)c3F)c2-c2ccncn2)CC1 [Example 109] | 0.379 µM
13 | CN(C)CCNc1nccc(-c2c(-c3ccc(Cl)cc3F)n[nH]c2C2CCN(C(=O)CO)CC2)n1 [Example 162] | 0.474 µM
14 | Fc1cc(Cl)ccc1-c1n[nH]c(C2CCNCC2)c1-c1ccnc(NC2CCCC2)n1 [Example 147] | 0.0159 µM
15 | CCc1ccc(-c2n[nH]c(C3CCN(C(=O)CO)CC3)c2-c2ccncn2)cc1 [Example 82] | 5.85 µM
16 | CN(C)CCNc1nccc(-c2c(-c3ccc(F)c(C(F)(F)F)c3)n[nH]c2C2CCNCC2)n1 [Example 146] | 0.261 µM
17 | CN(C)CCOc1nccc(-c2c(-c3ccc(F)c(C(F)(F)F)c3)n[nH]c2C2CCN(C(=O)CO)CC2)n1 [Example 139] | 0.854 µM
18 | O=C(CO)N1CCC(c2[nH]nc(-c3ccc(Cl)cc3)c2-c2ccnc(O[C@H]3CCOC3)n2)CC1 [Example 92] | 0.14 µM
19 | N#Cc1cccc(Oc2nccc(-c3c(-c4ccc(Cl)cc4)n[nH]c3C3CCN(C(=O)CO)CC3)n2)c1 [Example 96] | 0.0697 µM
20 | CN1CCC(c2[nH]nc(-c3ccc(Cl)cc3)c2-c2ccnc(NC3CCN(Cc4ccccc4)CC3)n2)CC1 [Example 152] | 0.075 µM
21 | CN(C)CCNc1nccc(-c2c(-c3ccc(Cl)cc3)n[nH]c2C2CCNCC2)n1 [Example 144] | 0.159 µM
22 | O=C([C@H](O)CO)N1CCC(c2[nH]nc(-c3ccc(Cl)cc3)c2-c2ccncn2)CC1 [Example 63] | 0.416 µM
23 | CN1CCC(c2[nH]nc(-c3ccc(Cl)cc3F)c2-c2ccnc(NC3CCCC3)n2)CC1 [Example 153] | 0.0182 µM
24 | C[C@@H](N[C@H]1CC[C@@H](c2[nH]nc(-c3ccc(Cl)cc3)c2-c2ccncn2)CC1)c1ccccc1 [Example 122] | 0.0449 µM
25 | CC(C)(C)OC(=O)N1CCC(c2[nH]nc(-c3ccc(Cl)cc3)c2-c2ccnc(OCCN3CCOCC3)n2)CC1 [Example 136] | 16.9 µM
26 | CC(=O)OCC(=O)N1CCC(c2[nH]nc(-c3ccc(Cl)cc3)c2-c2ccnc(S(C)(=O)=O)n2)CC1 [Example 95] | 3.31 µM

Row | SMILES | IC50
27 | CN(C)CCOc1nccc(-c2c(-c3ccc(Cl)cc3F)n[nH]c2C2CCN(C(=O)CO)CC2)n1 [Example 157] | 1.07 µM and 0.847 µM
28 | CN(C)CCNc1nccc(-c2c(-c3ccc(Cl)cc3F)n[nH]c2C2CCN(C(=O)OC(C)(C)C)CC2)n1 [Example 160] | 4.4 µM
29 | C[C@@H](O)C(=O)N1CCC(c2[nH]nc(-c3cccc(Cl)c3F)c2-c2ccncn2)CC1 [Example 114] | 0.411 µM
30 | O=C(CO)N1CCC(c2[nH]nc(-c3ccc(Cl)c(Cl)c3)c2-c2ccncn2)CC1 [Example 69] | 0.133 µM
31 | CN(C)CCOc1nccc(-c2c(-c3cccc(Cl)c3)n[nH]c2C2CCN(C(=O)OC(C)(C)C)CC2)n1 [Example 137] | 9.34 µM
32 | CCN1CCN([C@H]2CC[C@H](c3[nH]nc(-c4ccc(Cl)cc4)c3-c3ccncn3)CC2)CC1 [Example 58] | 0.0649 µM
33 | CN(C)CCNc1nccc(-c2c(-c3ccc(Cl)cc3)n[nH]c2C2CCN(C(=O)OC(C)(C)C)CC2)n1 [Example 143] | 3.64 µM
34 | O=C(CO)N1CCC(c2[nH]nc(-c3cc(F)cc(Cl)c3)c2-c2ccncn2)CC1 [Example 104] | 1.1 µM
35 | C[C@H](N[C@H]1CC[C@H](c2[nH]nc(-c3ccc(Cl)cc3)c2-c2ccncn2)CC1)c1ccc(F)cc1 [Example 128] | 0.00576 µM
36 | Cc1c(Cl)cccc1-c1n[nH]c(C2CCN(C(=O)CO)CC2)c1-c1ccncn1 [Example 88] | 0.974 µM
37 | FC(F)(F)c1cc(-c2n[nH]c(C3CCNCC3)c2-c2ccnc(NC3CCCC3)n2)ccc1NC1CCCC1 [Example 165] | 0.424 µM
38 | C[C@@H](N[C@H]1CC[C@H](c2[nH]nc(-c3ccc(Cl)cc3)c2-c2ccncn2)CC1)c1ccccc1 [Example 124] | 0.0452 µM
39 | CC(C)CCNc1nccc(-c2c(-c3ccc(Cl)cc3)n[nH]c2C2CCN(C(=O)CO)CC2)n1 [Example 100] | 0.859 µM
40 | C[C@H](N[C@H]1CC[C@H](c2[nH]nc(-c3ccc(Cl)cc3)c2-c2ccncn2)CC1)c1ccccc1 [Example 121] | 0.00856 µM
41 | O=C(CO)N1CCC(c2[nH]nc(-c3cc(C(F)(F)F)ccc3F)c2-c2ccncn2)CC1 [Example 102] | 0.454 µM
42 | CN(C)CCNc1nccc(-c2c(-c3ccc(F)c(C(F)(F)F)c3)n[nH]c2C2CCN(C(=O)CO)CC2)n1 [Example 118] | 0.814 µM
43 | CC(C)C(N)C(=O)OCC(=O)N1CCC(c2[nH]nc(-c3ccc(Cl)cc3)c2-c2ccncn2)CC1 (centres unmarked) [Example 57] | 0.0285 µM
44 | O=C(CO)N1CCC(c2[nH]nc(-c3ccc(Cl)cc3F)c2-c2ccnc(NC3CCCC3)n2)CC1 [Example 154] | 0.0176 µM

Reference: patent publication US20040082551A1, “Novel pyrazoles and their use as p38 kinase inhibitors” (priority 2002, published 2004)
